# “And” between values parts separate entries of the source, which are not always exact repeats. Equal values may be shown once. Read-outs that look alike come from different tables or passages of the source.
# Key:
# HRV1A [1] = assay: HRV1A infection of WI-38 human embryonic diploid airway cells; assay type: cell-based; conditions: Human rhinovirus sp.
# Experimental: A single cell high-content, image based infection assay was applied to measure infection in high throughput format. Viruses were added to cells in infection medium containing BSA (DMEM containing 25 mM HEPES if used outside of a CO2 cell culture incubator, supplemented with L-glutamine, 30 mM MgCl2 and 0.2% BSA (Sigma) for CV and HRV), or in infection medium containing trypsin-TPCK (DMEM supplemented with L-glutamine and TPCK-trypsin 1 µg/ml (Sigma) for FLU/PR8) and normal growth media for HSV. For all experiments, the multiplicity of infection (moi) was chosen such that approximately 20–40% of the cells were infected at 7 h post infection (pi) (HRV &CV), 8 h pi (FLU) or 18 h pi (HSV). Cells were fixed by adding 1/3 volume of a 16% para-formaldehyde solution, washed with PBS, PBS/25 mM NH4Cl and PBS, permeabilized with 0.2% Triton X-100 (Sigma), washed twice with PBS and blocked with PBS/1% BSA (Fraction V, Sigma). […] Routinely, 9–20 images per well were acquired yielding an average of 5000–12000 cells analysed per well and data point. […] Images were analyzed using a custom written Matlab routine. […]
# Compounds were dissolved in dimethyl sulfoxid (DMSO, cell culture grade, Sigma) and added to cells in dilutions indicated with respective concentrations of solvent alone as controls. […] Infection was quantified by immune-staining for dsRNA. […]
# HRV1A [2] = assay: Full cycle infectivity assay (virus titer, TCID50); assay type: cell-based, human rhinovirus; conditions: full cycle assays; BafA1 (0.5 nM), alone or drug combination
# [3] = pKa and log P quoted from the literature; assay type: physicochemical; conditions: pH 7.4
# HRV1A, 2, 14, 16 = assay: Infection assays with the HRV panel in HeLa cells; assay type: cell-based, human rhinovirus
# HRV2 [4] = test system: HRV2
# HRV14 [5] = test system: HRV14
# HRV16 [6] = test system: HRV16
# CVA21 [7] = test system: CVA21
# CVB3 [8] = test system: CVB3
# CVB4 [9] = test system: CVB4
# [10] = test system: influenza virus (strain A/Puerto Rico/8/34/H1N1 depicted PR8)
# HSV1 [11] = test system: HSV1
# [12] = cited from earlier work
# rats = conditions: cited from earlier work
# [13] = Liposome dextran-FITC de-quenching; conditions: read-out: FITC-fluorescence dequenching, half maximal efficacy; liposomes loaded at pH 5.15 with dextran-FITC
# Experimental: Liposomes from soy phosphatidyl-choline were prepared in 100 mM acetate pH 5.15 containing 1 mM 4.4 kDa FITC-dextran using standard extrusion protocols yielding vesicles of an average size of 200 nm measured using a particle size analyzer (Nicomp 370, Nicomp, Port Richey, FL, USA). Non-encapsulated FITC-dextran was removed by size exclusion chromatography in a G25 column (Pharmacia) followed by extensive dialysis against 100 mM acetate pH 5.15 in a Floatalyzer with 50 kDa cut-off (Spectrumlabs). To measure fluorescence de-quenching FITC-dextran containing liposomes were diluted in PBS at 20–60 µg/ml, incubated with the respective compounds at room temperature and analysed for fluorescence using a plate reader (TECAN Safire II) with fluorescence TOP measurement settings at excitation of 483/10 nm and emission of 525/15 nm wavelength within 15 min. Control measurements of samples containing PBS, Triton X-100 or the compounds alone were carried out to measure background, maximal readout of the assay and auto-fluorescence of compounds. The data were normalized to the PBS control and background fluorescence was subtracted.
# HRV1A [14] = assay: microbe, parasite or virus in culture; conditions: Human rhinovirus sp.
# HRV2 [15] = assay: microbe, parasite or virus in culture; conditions: Human rhinovirus sp., HRV2, HeLa, read-out: IC50 (HRV2)
# HRV14 [16] = assay: microbe, parasite or virus in culture; conditions: Human rhinovirus sp., HRV14, HeLa, read-out: IC50 (HRV14)
# HRV16 [17] = assay: microbe, parasite or virus in culture; conditions: Human rhinovirus sp., HRV16, HeLa, read-out: IC50 (HRV16)
# CVA21 [18] = assay: microbe, parasite or virus in culture; conditions: Coxsackievirus, CVA21, HeLa, read-out: IC50 (CVA21)
# CVB3 [19] = assay: microbe, parasite or virus in culture; conditions: Enterovirus B, CVB3, HeLa, read-out: IC50 (CVB3)
# CVB4 [20] = assay: microbe, parasite or virus in culture; conditions: Enterovirus B, CVB4, HeLa, read-out: IC50 (CVB4)
# [21] = test system: influenza virus (strain A/Puerto Rico/8/34/H1N1 depicted PR8); assay: microbe, parasite or virus in culture; conditions: unidentified influenza virus, A549, read-out: IC50 (PR8)
# HSV1 [22] = assay: microbe, parasite or virus in culture; conditions: Human alphaherpesvirus 1, read-out: IC50 (HSV1)
# [23] = test system: clathrin-coated vesicles (CCV); assay: Acridine orange measurements in clathrin-coated vesicles; conditions: AO red fluorescence assay
# Experimental: CCV suspended in assay buffer (10 mM HEPES, pH7, 100 mM KCl, 1 mM EDTA) were incubated with 1 mM ATP, 2 µM AO (Molecular Probes). The ATPase reaction was initiated by adding MgCl2 to 1 mM and fluorescence was determined at 492/540 nm in a plate reader (Tecan, Männedorf, Switzerland) at room temperature after 10 min. BafA1 and samples without MgCl2 were used as controls.
smiles,measurement,setting,value
"O=C(Nc1ccc([N+](=O)[O-])cc1Cl)c1cc(Cl)ccc1O [niclosamide, 5-chloro-N-(2-chloro-4-nitrophenyl)-2-hydroxybenzamide, reference compound]",IC50,HRV1A [1],1.3 µM
same,decrease of virus titers,HRV1A [2],about five-fold
same,molecules in the deprotonated form,[3],about 99%
same,IC50,"HRV1A, 2, 14, 16; Human rhinovirus sp., HRV1A, HeLa, read-out: IC50 (range over HRV1A, 2, 14, 16)",0.84 to 1.4 µM
same,effect of drug washout on the antiviral effect,"HRV1A, 2, 14, 16; cells pre-treated 30 min or 18 h, washed with drug-free medium",completely abolished the antiviral effect
same,time of addition giving half maximal effects,"HRV1A, 2, 14, 16; compound added before or post infection of HeLa cells with HRV",≤ 30 min pi
same,effect of virus pre-treatment on the inhibition profile,"HRV1A, 2, 14, 16; viruses pre-treated at up to 400 µM at 37°C for 30 min",did not affect the inhibition profile
same,"TI (IC50 / CC50), HRV2",HRV2 [4],20.1
same,"TI (IC50 / CC50), HRV14",HRV14 [5],24.1
same,"TI (IC50 / CC50), HRV16",HRV16 [6],14.7
same,"TI (IC50 / CC50), CVA21",CVA21 [7],3.06
same,"TI (IC50 / CC50), CVB3",CVB3 [8],< 0.4
same,"TI (IC50 / CC50), CVB4",CVB4 [9],5.22
same,"TI (IC50 / CC50), PR8",[10],24.4
same,"TI (IC50 / CC50), HSV1",HSV1 [11],1.37
same,log P,[12]; pH 5.7,5.63
same,log P,[12]; pH 7,4.48
same,acute oral toxicity LD50,rats,> 5 g/kg body weight
same,EC50,[13],14 µM
same,IC50,"HRV1A [14]; HeLa, read-out: IC50 (HRV1A)",1.04 µM
same,activity at 0.03 µM,"HRV1A [14]; M-HeLa, 7 h, read-out: HRV1A infection (dsRNA), 0.03 µM",98%
same,activity at 0.1 µM,"HRV1A [14]; M-HeLa, 7 h, read-out: HRV1A infection (dsRNA), 0.10 µM",96%
same,activity at 0.31 µM,"HRV1A [14]; M-HeLa, 7 h, read-out: HRV1A infection (dsRNA), 0.31 µM",90%
same,activity at 0.93 µM,"HRV1A [14]; M-HeLa, 7 h, read-out: HRV1A infection (dsRNA), 0.93 µM",39%
same,activity at 2.78 µM,"HRV1A [14]; M-HeLa, 7 h, read-out: HRV1A infection (dsRNA), 2.78 µM",4%
same,activity at 8.33 µM,"HRV1A [14]; M-HeLa, 7 h, read-out: HRV1A infection (dsRNA), 8.33 µM",5%
same,activity at 25 µM,"HRV1A [14]; M-HeLa, 7 h, read-out: HRV1A infection (dsRNA), 25.00 µM",4%
same,IC50,HRV2 [15],1.01 µM
same,IC50,HRV14 [16],0.84 µM
same,IC50,HRV16 [17],1.38 µM
same,IC50,CVA21 [18],6.63 µM
same,IC50,CVB3 [19],> 50 µM
same,IC50,CVB4 [20],3.88 µM
same,IC50,[21],0.83 µM
same,IC50,HSV1 [22],> 10 µM and 14.8 µM
same,pH of isolated CCV,[23],neutralized the pH of CCV in a dose-dependent manner
